Experiments:
[1] = Thermal stability of sodium ferrate(VI) (temperature limit); format: physicochemical
From the text: The ferrate fiber of the present invention can disperse the ferrate formulation mentioned above into one or more suitable polymers to produce the ferrate fiber. Broadly, a formulation of the ferrate is mixed/blended with at least one nonaqueous polymer, and then the mixture can be dispersed and cooled to solidify into the fiber of the present invention. The nonaqueous polymer is defined above. A conventional extrusion method can be used to co-extrude/disperse the ferrate/polymer mixture. Preferably, the polymer is in a liquid form before blending with the ferrate formulation. The polymer can be melted into a liquid polymer before blending. The ferrate is highly oxidative so it is normally not placed in contact with any high temperature organic polymer, nor is it co-extruded/dispersed with other polymers under a relatively high temperature using a conventional extrusion method. Such blending and co-extrusion might decompose the ferrate prematurely. […] Most suitable polymers can melt at a much lower temperature. Therefore, the ferrate(VI) can be blended and then co-extruded/dispersed with one or more melted liquid polymers without causing the ferrate to decompose prematurely even using a relatively vigorous conventional extrusion method.

[2] = Thermal storage stability under Army Regulation (AR) 70-38 test conditions; format: physicochemical
Description: Unexpectedly, unlike all peroxide materials, we found potassium ferrate(VI) to be thermally stable as defined by Army Regulation (AR) 70-38 test conditions. Therefore potassium ferrate(VI) was determined to be stable to storage for long periods, at least 98 days at 71° C., and at least 82 days under conditions of cycling daily from 23° C. to 71° C. and back again. […] In these tests, losses with time varied slightly with test vials ranging from <1% to 10% (±3%) loss respectively after the test periods given.

Compound | stable up to (temperature) [1] | stable to storage (time) ([2]; at 71° C., pure (80-100% analytical grade) or moderate purity (50-80% technical grade)) | stable to storage (time) ([2]; cycling daily from 23° C. to 71° C. and back again, pure or technical grade) | estimated storage stability ([2]; estimated from the AR 70-38 results)
[Na+].[Na+].[O]=[Fe](=[O])([O-])[O-] [sodium ferrate(VI)] | up to 270 °C |  |  | 
potassium ferrate(VI) |  | at least 98 days | at least 82 days | sufficiently stable for several years of storage
